Data: paper PMC12880750, “Mechanistic insights and in vivo HIV suppression by the BRD4-targeting small molecule ZL0580” (PLOS Pathogens, 2026)
Where two headings read alike, the source gives them in different places.

Assays:
[1] = In vivo pharmacokinetics in ICR mice; set-up: species or system male ICR mice; conditions: mouse, plasma
Experimental: Animal experiments assessing PK and in vivo toxicity profile of ZL0580 was performed by the contracting research organization (CRO) Sundia. The studies were performed according to the NIH Guide for Care and Use of Experimental Animals. The PK studies of ZL0580 was performed using male ICR mice (18–22 g). The mice were randomly divided into two groups (n = 3). The mice of the group 1 were intravenously administrated with ZL0580 [10 mg/kg, in 10% DMSO + 10% Solutol HS 15 + 80% HP-β-CD (20%, w/v)] and the mice of the group 2 were orally administrated with ZL0580 [20 mg/kg, in 10% DMSO + 90% HP-β-CD (20%, w/v)]. Blood samples of group 1 and group 2 mice were collected at the indicated time points post treatment and put into heparinized centrifugation tubes, which were centrifuged under the condition of 6800 rpm and 4 °C for 6 min. The supernatant was collected and stored at -20 °C for further LC-MS analysis. Before the plasma concentrations (AUC) were determined, standard curves were generated with various concentrations of ZL0580 and the internal standard (IS). All PK parameters were calculated with WinNonlin 6.4 software.

BRD4 BD1 = assay: In vitro binding affinity (TR-FRET), BRD4 BD1; set-up: species or system human; conditions: from IC50 BD1 and BD2
[2] = In vivo toxicity study in ICR mice; set-up: key to Detail clinical observation during administration period (symptom number): 01. normal; 02. Cavity to observe; 03. Discolored skin; 04. Salivation; 05. Emesis; 06. Lacrimation; 07. ptosis; 08.Decreased respira tion; 09. Increased respiration; 10. anhelation; 11. Ataxia; 12. Loose stools; 13. Limb’s tremor; 14. Ey e; 15.Weakness; 16. Hyperreactivity; 17. Emaciation; 18. Whole body touch; 19. Cough; 20. At the injection site; 21. Alopecia genitalized; 22. convulsion; 23. Corna; 24. Death; key to Necropsy macroscopic (all organs examined): –: normal-; slight +; midrange ++; severe ++++; conditions: for Detail clinical observation during administration period (symptom number): all 10 animals (5 F, 5 M), Day 1 (twice) to Day 7; for Necropsy macroscopic (all organs examined): all organs listed
Experimental: The acute toxicity studies were performed in both male and female ICR mice. The mice were divided into 3 groups (each group, n = 10, 5 males and 5 females). Group 1 was the vehicle group without ZL0580 treatment (po, 20% DMA + 20% Solutol HS15 + 60% HP-β-CD (20%, w/v)). Group 2, and group 3 mice were orally administrated with ZL0580 at doses of 100 mg/kg and 300 mg/kg [in 20% Dimethyl Acetamide (DMA) + 20% Solutol HS15 + 60% HP-β-CD (20%, w/v)], respectively. The body weights of all mice were weighed on day 1, 3, and 7 after treatments. The mean body weights of all mice in each group were calculated, and the standard curves were generated with the mean body weights of each group mice at different recorded time points. The food consumption masses of each group mice were recorded on day 1, 2, 3, 4, and 5 after treatments. The mean food consumption of all mice in each group was calculated, and the standard curves were generated with the mean food consumption of each group at different recorded time points.

[3] = tested on: Tat recruitment to the HIV promoter in J-Lat cells (clone 10.6); set-up: method as in PMID 31329163; conditions: cited from earlier work
BRD4 BD1 E151A = target: T1, BRD4 BD1 E151A (Homo sapiens, UniProt O60885, E151A); assay: Thermal shift assay (TSA/DSF), BD1 E151A mutant; type: binding; conditions: eight increasing concentrations
T1 construct: Constructs used for mutagenesis, including wild-type BD1 (BD1 WT), BD1 with an E151A mutation (BD1 E151A), and wild-type BD2 (BD2 WT); GST (cleaved yes); made in house
Experimental: The melting temperatures shifts (ΔTm) were measured and the ΔTm curves as a function of compound-to-protein ratios were generated (Fig 2B–2C). […] As an additional control, the Tm of WT BD1 and E151A mutant in the absence of compound was also measured by TSA.
Plasmid construction and subsequent protein expression and purification of BRD4 proteins were performed using OverExpress C43(DE3) bacterial competent cells (Lucigen) as described in our previous studies. In brief, 12 L of bacterial cultures grown to OD600 between 0.6-0.8 were induced at 37°C for 4 h by 1 mM isopropyl […] (IPTG). Bacterial sonication supernatant in the lysis buffer (500 mM NaCl, 20 mM Tris-HCl pH 7.9 at 4°C, 20% glycerol, 1 mM EDTA, 0.2 mM DTT, and protease inhibitors) was incubated with glutathione (GSH) agarose beads (GOLDBIO, G-250–100) overnight with rotation at 4°C. The protein-bound GSH beads were washed three times with the lysis buffer and digested with human rhinovirus 3C protease (HRV-P3C; Thermal Fisher 88946) at 4°C for 4 h, according to the manufacture’s procedure, to remove GST tag from BD1/2 proteins. Untagged BRD4-BD1 and -BD2 were separated from HRV-P3C via passing through a HiTrap Q HP anion exchange chromatography column (GE Healthcare, GE17-1154-01) and eluted by a salt gradient from 100 mM to 1 M NaCl. […]

[4] = ICR mice, 100 mg/kg or 300 mg/kg daily for 7 days
[5] = ICR mice, 100 mg/kg or 300 mg/kg, end of the study

## O=C(Nc1ccc(C(F)(F)F)cc1)Nc1ccc(S(=O)(=O)N2CCC[C@H]2C(=O)Nc2ccccc2)cc1 [ZL0580]
[1]; male, IV, 10 mg/kg, ICR mice
  AUC(0-t): 14400 ± 3470 ng·h/mL
[1]; male, IV, 10 mg/kg, ICR mice, read-out: AUC0-∞
  AUC(0-inf): 14400 ± 3470 ng·h/mL
[1]; IV (10 mg/kg), male ICR mice
  Cmax: 19300 ± 2790 ng/mL
  MRT inf: 0.73 ± 0.12 h
  clearance: 12 mL/min/kg
  half-life: 0.91 ± 0.06 h
[1]; IV (10 mg/kg), male ICR mice, read-out: Vz
  Vd: 0.95 ± 0.28 L/kg
[1]; PO (20 mg/kg), male ICR mice
  AUC(0-t): 5590 ± 1880 ng·h/mL
  Cmax: 1470 ± 186 ng/mL
  MRT inf: 3.18 ± 1.39 h
  half-life: 2.54 ± 2.24 h
[1]; PO (20 mg/kg), male ICR mice, read-out: AUC0-inf
  AUC(0-inf): 5800 ± 2120 ng·h/mL
BRD4 BD1
  Selectivity (BRD4 BD1 vs BD2): about 7 fold
[2]; Group 2, 100 mg/kg PO
  Detail clinical observation during administration period (symptom number): 01
[2]; Group 2, 100 mg/kg PO, all 10 animals
  Necropsy macroscopic (all organs examined): –
[2]; Group 3, 300 mg/kg PO
  Detail clinical observation during administration period (symptom number): 01
[2]; Group 3, 300 mg/kg PO, females 801-805 shown
  Necropsy macroscopic (all organs examined): –
[2]; ICR mice, 100 mg/kg or 300 mg/kg PO daily for 7 days
  Tolerability in vivo: well tolerated
[2]; [4]
  Changes in body weights: little to no changes
  Changes in food consumption: little to no changes
[2]; [5]
  Necropsy and gross pathological examinations: no abnormalities
  Serum biochemistry: no abnormalities
[2]; ICR mice, 100 mg/kg or 300 mg/kg, throughout the study
  Clinical signs of toxicity: No clinical signs of toxicity were observed
[3]
  Tat binding to the HIV promoter: decreased
BRD4 BD1 E151A
  Effect on stability of BD1 E151A mutant (TSA): almost no effect
